Data from ChEMBL document CHEMBL1909046, “DrugMatrix in vitro pharmacology data”.
pIC50, pKi: −log10 of the molar value.

How the values were obtained:
[1] = target: T1, Angiotensin-converting enzyme (Oryctolagus cuniculus, UniProt P12822); assay type: tissue-based, Lung;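 also: enzymatic inhibition of angiotensin-converting enzyme measured with FAPGG as the substrate; in other assays of this panel Not Active means under 50% inhibition at 10 µM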
T1 sequence (P12822 whole entry): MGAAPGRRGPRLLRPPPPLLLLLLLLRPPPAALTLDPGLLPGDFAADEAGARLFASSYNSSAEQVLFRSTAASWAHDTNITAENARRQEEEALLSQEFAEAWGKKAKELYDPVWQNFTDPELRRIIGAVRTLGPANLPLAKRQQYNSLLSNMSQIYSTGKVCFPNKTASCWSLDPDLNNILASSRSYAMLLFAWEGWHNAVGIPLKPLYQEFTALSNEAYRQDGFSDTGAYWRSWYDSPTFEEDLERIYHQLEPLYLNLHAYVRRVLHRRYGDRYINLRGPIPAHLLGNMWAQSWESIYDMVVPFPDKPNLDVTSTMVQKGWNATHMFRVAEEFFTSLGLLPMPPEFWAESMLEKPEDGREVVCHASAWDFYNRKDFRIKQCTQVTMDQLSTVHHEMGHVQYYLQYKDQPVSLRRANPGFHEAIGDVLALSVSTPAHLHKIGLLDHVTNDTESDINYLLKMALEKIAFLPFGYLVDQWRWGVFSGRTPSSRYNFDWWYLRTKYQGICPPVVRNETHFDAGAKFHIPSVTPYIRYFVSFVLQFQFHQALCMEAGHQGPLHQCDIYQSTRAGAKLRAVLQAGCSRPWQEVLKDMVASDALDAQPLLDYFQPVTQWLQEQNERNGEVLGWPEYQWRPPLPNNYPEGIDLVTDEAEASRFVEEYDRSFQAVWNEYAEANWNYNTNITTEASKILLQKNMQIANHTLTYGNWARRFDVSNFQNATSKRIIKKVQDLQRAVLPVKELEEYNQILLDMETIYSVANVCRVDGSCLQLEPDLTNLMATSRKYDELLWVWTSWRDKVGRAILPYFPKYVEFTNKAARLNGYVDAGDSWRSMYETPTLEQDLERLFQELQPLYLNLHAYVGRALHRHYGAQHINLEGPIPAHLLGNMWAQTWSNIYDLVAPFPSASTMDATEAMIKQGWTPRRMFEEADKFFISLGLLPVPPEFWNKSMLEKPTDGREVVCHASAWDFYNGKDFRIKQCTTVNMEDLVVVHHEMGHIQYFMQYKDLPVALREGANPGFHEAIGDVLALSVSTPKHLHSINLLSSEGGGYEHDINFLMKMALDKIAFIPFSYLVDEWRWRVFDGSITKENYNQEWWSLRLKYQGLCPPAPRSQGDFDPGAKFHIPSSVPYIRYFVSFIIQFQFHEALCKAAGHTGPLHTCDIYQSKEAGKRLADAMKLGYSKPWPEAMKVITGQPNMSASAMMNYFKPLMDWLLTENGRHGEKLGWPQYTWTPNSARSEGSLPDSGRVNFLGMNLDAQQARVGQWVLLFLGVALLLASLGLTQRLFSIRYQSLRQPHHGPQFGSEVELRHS

[2] = target: T2, 5-hydroxytryptamine receptor 2C (Homo sapiens, UniProt P28335); test: DRUGMATRIX: Serotonin (5-Hydroxytryptamine) 5-HT2C radioligand binding (ligand: [3H] Mesulergine); assay type: cell membranes, CHO-K1, Membrane; conditions: Not Active = under 50% inhibition at 10 µM; for IC50: cho-k1
T2 sequence (P28335 whole entry): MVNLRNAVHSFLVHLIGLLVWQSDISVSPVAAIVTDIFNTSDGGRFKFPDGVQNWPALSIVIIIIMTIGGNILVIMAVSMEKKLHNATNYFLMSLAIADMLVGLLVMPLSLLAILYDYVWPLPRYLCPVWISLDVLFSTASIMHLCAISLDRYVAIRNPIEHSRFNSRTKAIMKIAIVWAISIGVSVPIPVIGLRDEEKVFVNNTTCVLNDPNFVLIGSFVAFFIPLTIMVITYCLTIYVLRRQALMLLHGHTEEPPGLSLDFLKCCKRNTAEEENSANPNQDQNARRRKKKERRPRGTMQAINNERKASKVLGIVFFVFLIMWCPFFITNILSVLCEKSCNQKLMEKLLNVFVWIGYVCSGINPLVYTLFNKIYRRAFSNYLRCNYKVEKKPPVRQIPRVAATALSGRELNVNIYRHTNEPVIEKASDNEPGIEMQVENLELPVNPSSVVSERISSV

[3] = target: T3, Thromboxane-A synthase (Homo sapiens, UniProt P24557); test: biochemical; assay type: tissue-based, Platelet; conditions: for IC50: platelet;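 as to all read-outs here: enzyme inhibition assay with PGH2 supplied as substrate; in other assays of this panel Not Active means under 50% inhibition at 10 µM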
T3 sequence (P24557 whole entry): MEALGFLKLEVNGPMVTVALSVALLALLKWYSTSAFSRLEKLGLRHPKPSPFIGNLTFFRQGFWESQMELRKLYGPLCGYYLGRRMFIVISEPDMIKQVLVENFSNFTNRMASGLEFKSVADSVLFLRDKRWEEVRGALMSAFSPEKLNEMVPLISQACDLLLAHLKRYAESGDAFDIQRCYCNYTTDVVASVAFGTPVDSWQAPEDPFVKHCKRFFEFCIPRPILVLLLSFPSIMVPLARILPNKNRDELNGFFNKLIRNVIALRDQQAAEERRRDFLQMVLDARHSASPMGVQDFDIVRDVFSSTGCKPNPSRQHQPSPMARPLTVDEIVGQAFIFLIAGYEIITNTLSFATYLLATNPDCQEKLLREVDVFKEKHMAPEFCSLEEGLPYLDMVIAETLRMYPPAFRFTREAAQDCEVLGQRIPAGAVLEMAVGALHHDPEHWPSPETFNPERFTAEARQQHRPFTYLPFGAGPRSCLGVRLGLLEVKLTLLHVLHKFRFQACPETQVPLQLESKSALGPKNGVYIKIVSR

[4] = DRUGMATRIX: Calcium Channel Type L, Dihydropyridine radioligand binding (ligand: [3H] Nitrendipine); assay type: cell membranes, Rattus norvegicus, Wistar, Cerebral cortex, Membrane; conditions: Not Active = under 50% inhibition at 10 µM
[5] = DRUGMATRIX: beta-Lactamase enzyme inhibition (substrate: Nitrocefin); design: species or system Bacillus cereus; conditions: Not Active = under 50% inhibition at 10 µM
[6] = target: T4, Neuropeptide Y receptor type 1 (Homo sapiens, UniProt P25929); assay type: cell membranes, Membrane; conditions: sk-n-mc; also: in other assays of this panel Not Active means under 50% inhibition at 10 µM
T4 sequence (P25929 whole entry): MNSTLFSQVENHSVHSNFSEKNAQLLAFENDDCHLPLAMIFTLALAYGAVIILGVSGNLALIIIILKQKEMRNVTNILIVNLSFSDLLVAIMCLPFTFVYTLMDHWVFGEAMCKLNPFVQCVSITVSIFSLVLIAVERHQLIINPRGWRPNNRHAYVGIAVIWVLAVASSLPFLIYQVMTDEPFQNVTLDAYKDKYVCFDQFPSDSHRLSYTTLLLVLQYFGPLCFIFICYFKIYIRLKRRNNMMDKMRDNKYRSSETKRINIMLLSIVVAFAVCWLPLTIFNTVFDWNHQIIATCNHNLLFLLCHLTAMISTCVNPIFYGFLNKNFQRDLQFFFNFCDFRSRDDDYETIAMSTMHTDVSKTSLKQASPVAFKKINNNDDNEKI

SMILES	IC50 [1]	IC50 [2]	IC50 [3]	IC50 [4]	Ki [4]	IC50 [5]	Ki [5]	IC50 [6]	pIC50 ([2]; read-out: IC50)	pKi ([2]; read-out: Ki)	pIC50 ([3]; read-out: IC50)
O.O.O.O.O.O.[Cl-].[Cl-].[Sr+2] [STRONTIUM CHLORIDE HEXAHYDRATE]	Not Active	Not Active	Not Active	Not Active	Not Active	Not Active	Not Active	Not Active			
COc1ccc(CCN(C)CCCC(C#N)(c2ccc(OC)c(OC)c2)C(C)C)cc1OC (stereo not given)	Not Active		Not Active	Not Active	Not Active	Not Active	Not Active	Not Active			
CCN(CC)CCOc1ccc(/C(=C(/Cl)c2ccccc2)c2ccccc2)cc1 [ENCLOMIPHENE]	Not Active		Not Active					Not Active	5.90	6.18	
Clc1ccccc1CN1CCc2sccc2C1 [TICLOPIDINE]	Not Active	Not Active	Not Active	Not Active	Not Active	Not Active	Not Active	Not Active			
CC(C)Oc1ccc2c(=O)c(-c3ccccc3)coc2c1 [IPRIFLAVONE]	Not Active	Not Active	Not Active	Not Active	Not Active	Not Active	Not Active	Not Active			
COc1cc2nc(N3CCN(C(=O)C4CCCO4)CC3)nc(N)c2cc1OC (stereo not given) [TERAZOSIN]	Not Active	Not Active	Not Active	Not Active	Not Active	Not Active	Not Active	Not Active			
C[C@H]1C[C@@H]2[C@H]([C@@H](O)C[C@@]3(C)[C@H]2CC[C@]3(O)C(=O)CO)[C@@]2(C)C=CC(=O)C=C12 [METHYLPREDNISOLONE]	Not Active	Not Active	Not Active	Not Active	Not Active	Not Active	Not Active	Not Active			
NC1CCN(c2nc3c(cc2F)c(=O)c(C(=O)O)cn3-c2ccc(F)cc2F)C1 (stereo not given) [TOSUFLOXACIN]	Not Active	Not Active	Not Active	Not Active	Not Active	Not Active	Not Active	Not Active			
CN(C)CCOC(c1ccccc1)c1ccccc1 [DIPHENHYDRAMINE]	Not Active		Not Active					Not Active			
CNCCC(Oc1ccc(C(F)(F)F)cc1)c1ccccc1 (stereo not given) [FLUOXETINE]	Not Active		Not Active					Not Active			
Cc1ccc(NC(=O)c2ccc(CN3CCN(C)CC3)cc2)cc1Nc1nccc(-c2cccnc2)n1 [IMATINIB]	Not Active	Not Active						Not Active			6.70
